The source made the active and inactive calls. How the calls were made is not given here.
Target: C-X-C chemokine receptor type 6 (Homo sapiens) (UniProt O00574)
Assay: potency against CXCR6 with APJ panel – cell-based, beta-arrestin, DiscoveRx, uHTS hits, dose response (AID 624129)
Details: CXCR6 beta-arrestin (DiscoveRx) antagonist cell assay; for outcome: CXCR6, dose range 1; for inhibition: CXCR6, run 2, dose range 1, at 79 µM (top of the series)
[1] = CXCR6, dose range 1, mean IC50 across replicates

C-X-C chemokine receptor type 6 (Homo sapiens), sequence (O00574 whole entry, looked up): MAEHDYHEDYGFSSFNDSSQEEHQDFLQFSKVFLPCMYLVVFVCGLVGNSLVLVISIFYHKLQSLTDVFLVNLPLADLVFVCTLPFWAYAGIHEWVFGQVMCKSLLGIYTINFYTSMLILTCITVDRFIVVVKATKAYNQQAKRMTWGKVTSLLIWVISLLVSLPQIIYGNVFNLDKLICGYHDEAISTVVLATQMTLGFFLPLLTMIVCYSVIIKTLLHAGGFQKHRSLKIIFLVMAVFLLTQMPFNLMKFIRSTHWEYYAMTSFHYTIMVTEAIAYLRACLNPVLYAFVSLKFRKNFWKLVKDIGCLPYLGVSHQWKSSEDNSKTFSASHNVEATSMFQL

Compound	outcome	IC50 [1] [µM]	IC50 (CXCR6, run 1, dose range 2) [µM]	inhibition [%]	IC50 (CXCR6, run 2, dose range 2) [µM]
CCOC(=O)[C@]12Cc3cc(Cl)ccc3[C@H]1N(C1CCCCC1)C(=O)c1cc(OC)ccc12	inactive	17.8	16.2	113	19.5
CCOc1ccc(/C=C/[N+](=O)[O-])c2ccccc12	inactive	17.2	17.3	109	17.1
Cc1ccc(CS(=O)(=O)c2ncc(Cl)c(C(=O)Nc3ccc(OC(F)F)cc3)n2)cc1	inactive	12.6	12.6	105	> 79
N#C/C(=C/c1ccc(-c2ccc([N+](=O)[O-])cc2)o1)C(=O)Nc1nc(-c2cccs2)cs1	inactive	38.1	44.7	90.2	31.5
Nc1ccccc1C#CC(=O)c1ccccc1	inactive	14.8	14.2	111	15.3
Cc1cc(C)cc(N2C(=O)CC(Sc3nnnn3-c3ccccc3)C2=O)c1 (stereo not given)	inactive	14.5	13.9	113	15.2
CCn1c(=O)cc(NC2=NCC(C)CN2c2cccc(Cl)c2)n(C)c1=O (stereo not given)	inactive	19.1	19.3	79	19
Oc1ccc(Cl)c2cccnc12	active	4.82	4.82	17.7	> 79
Cc1ccc(NC(=O)c2ccc(Nc3c([N+](=O)[O-])cc([N+](=O)[O-])cc3[N+](=O)[O-])cc2)cc1	inactive	28.5	31.4	89.3	25.7
C=CC[n+]1c(-c2ccc(Cl)cc2Cl)csc1Nc1c(C)n(C)n(-c2ccccc2)c1=O	inactive	40	29.2	101	50.8
CC1=CC(C)(C)N2C(=O)C(=Nc3ccc(O)cc3)c3cccc1c32	inactive	57.9	77.4	84	38.4
CC(=O)Nc1nc2ccccc2n1CCOc1ccccc1Cl	inactive	11.9	8.79	80.9	15
COc1cccc(C(=O)NC(=S)N2CCN(c3ccc(C(F)(F)F)cc3[N+](=O)[O-])CC2)c1	inactive	13.5	13.1	74.3	14
C=CCn1c(=O)c2c(nc3n2CC(C)CN3c2cccc(OC)c2)n(C)c1=O (stereo not given)	inactive	19.5	18.3	66.1	20.7
CC(Oc1cccc(Br)c1)C(=O)NNC(=O)c1ccccn1 (stereo not given)	inactive	14.4	12	105	16.9
Cc1cc(C)nc(S/C=C/C(=O)c2ccccc2)n1	inactive	25.1	22.6	107	27.5
Nc1nc(N)c2c(ccc3c2ccn3Cc2cccc([N+](=O)[O-])c2)n1	inactive	16.9	15.8	110	18
COc1ccc(CNC(=O)c2nc(S(=O)(=O)Cc3ccccc3)ncc2Cl)cc1	inactive	17.9	15.1	108	20.7
Cc1cccc(NC(=S)NNc2ncc(C(F)(F)F)cc2Cl)c1	inactive	20.5	26.4	109	14.7
Cc1ccccc1CS(=O)(=O)c1ncc(Cl)c(C(=O)Nc2ccc(F)cc2)n1	inactive	17.1	15.4	109	18.9
Cc1ccc(NC(=S)NNc2ccc(C(=O)O)cc2[N+](=O)[O-])cc1C	inactive	48.9	48.9	62	> 79
COc1ccc(C(=O)NC(=S)Nc2ccc([N+](=O)[O-])cc2C)cc1OC	inactive	21.7	18.3	100	25.1
NC(=S)NN=C1c2cc(Cl)ccc2-c2c1cc(Cl)cc2[N+](=O)[O-]	inactive	14.1	11.7	93.3	16.4
CCOc1cc(/C=C2\N=C(SC)SC2=O)cc([N+](=O)[O-])c1OC(C)=O	inactive	28.3	27.7	98.2	28.8

Compound	outcome	IC50 [1] [µM]	IC50 (CXCR6, run 1, dose range 2) [µM]	inhibition [%]	IC50 (CXCR6, run 2, dose range 2) [µM]
C=CC[C@H](CC(=O)N(CCO)Cc1ccccc1)C(=O)NC[C@H](OC(=O)[C@@H](CC=C)CC(=O)OC(C)(C)C)c1ccccc1	inactive	31	33.1	76.8	29
O=[N+]([O-])c1ccc(Sc2nc3ccccc3o2)c([N+](=O)[O-])c1	inactive	45.1	70.5	82.2	19.7
COc1ccc(/C=C(/C(=O)c2cccs2)N2C=CC=CC2=C(C#N)C#N)cc1	inactive	19.9	20.3	109	19.5
C=CCSC1=N/C(=C\c2cc(OCC)c(OC(C)=O)c([N+](=O)[O-])c2)C(=O)S1	inactive	47.2	61	96.9	33.4
COC(=O)c1ccc(/C=C(\C#N)C(=O)NC(C)c2ccccc2)cc1 (stereo not given)	inactive	14.1	13.6	112	14.6
O=C(NC(=S)Nc1ccccc1O)c1cncc(Br)c1	inactive	28.4	24.7	70.2	32
COC(=O)c1ccc(CCc2cc(O)c(Br)cc2O)cc1	inactive	43.1	19.5	111	66.8
Cc1ccc(NC(=O)C2=C(c3ccccc3)S(=O)(=O)CCS2(=O)=O)cc1	inactive	16.9	16.4	108	17.4
COc1cc(N2C(=O)C=CC2=O)ccc1N1C(=O)C=CC1=O	inactive	15.8	12.7	112	18.9
CC1=C(CO)C(=O)OC([C@@H](C)C2CC[C@H]3C4C[C@H]5O[C@]56[C@@H](O)C=CC(=O)[C@]6(C)C4CC[C@]23C)C1 (stereo not given in full)	inactive	14	12.2	112	15.8
COc1ccc(-c2c(C(=O)c3ccccc3)[nH]c(N)c2C(=O)c2ccccc2)cc1OC	inactive	28.4	33.1	71.1	23.8
C/C(=N\NC(=S)NCCc1ccccc1)c1ccc(Cl)cc1Cl	inactive	11.8	12.4	39.5	11.1
O=C(NC(=S)N1CCN(c2ccc(C(F)(F)F)cc2[N+](=O)[O-])CC1)c1cccs1	inactive	12.9	10.4	85.8	15.4
N#CC(C#N)=C1C=CC=CN1/C(=C\c1ccco1)C(=O)c1ccc(-c2ccccc2)cc1	inactive	14.1	12.2	103	16
CCc1ccc(NC(=O)c2nc(S(=O)(=O)Cc3ccccc3)ncc2Cl)cc1	inactive	12.1	11	111	13.1
COc1cc(/C=C2\SC(=O)N(c3ccc(Cl)cc3)C2=O)cc([N+](=O)[O-])c1O	inactive	20.6	12.8	88.6	28.4
O=C(Nc1ccc(F)cc1)c1nc(S(=O)(=O)Cc2ccccc2)ncc1Cl	inactive	12.9	12.5	112	13.4
COc1ccc(C(=O)/C=C/Sc2nc3ccccc3o2)cc1	inactive	44.8	21.7	61.3	67.8
O=C(Nc1ccc(Oc2ccccc2)cc1)c1csc([C@@H]2O[C@H](CO)[C@H](O)[C@H](O)[C@H]2O)n1	inactive	40.1	40.1	57.4	> 79
CC(=O)Nc1ccc2c(c1)Cc1cc(N3C(=O)C=CC3=O)ccc1-2	inactive	14.8	15.3	112	14.3
Cc1ccc(NCC(=O)c2ccc(C)cc2)cc1	active	5.44	5.44	58.5	> 79
NC(=O)c1ccccc1NCC(=O)c1ccc(Cl)cc1	active	5.58	5.58	36.4	> 79
O=C(NC(=S)N(CCc1ccccc1)CCc1ccccc1)c1ccco1	inactive	26	8.84	68.8	43.2
Cc1ccc(NS(=O)(=O)c2cc([N+](=O)[O-])ccc2NNC(=S)Nc2cc(C)ccc2C)c(C)c1	inactive	33	21.2	114	44.8

Source: PubChem BioAssay AID624129 (Sanford-Burnham Center for Chemical Genomics, 2012)
